Experimental data taken from US12552790B2, “Positive modulators of the muscarinic acetylcholine receptor M4” (Vanderbilt University, priority 2023, dated 2026).

Assays:
Human M4 = target: T1, Human M4 (Homo sapiens, UniProt P08173); assay: M4 cell-based functional assay, calcium mobilization, potentiation of ACh EC20; conditions: for Emax at 30 µM: % ACh maximum at 30 μM; for EC50: CHO-K1 hM4-Gqi5 cells, calcium flux, ACh EC20
T1 construct: expressed in transfected cells
T1 sequence (P08173 1-479): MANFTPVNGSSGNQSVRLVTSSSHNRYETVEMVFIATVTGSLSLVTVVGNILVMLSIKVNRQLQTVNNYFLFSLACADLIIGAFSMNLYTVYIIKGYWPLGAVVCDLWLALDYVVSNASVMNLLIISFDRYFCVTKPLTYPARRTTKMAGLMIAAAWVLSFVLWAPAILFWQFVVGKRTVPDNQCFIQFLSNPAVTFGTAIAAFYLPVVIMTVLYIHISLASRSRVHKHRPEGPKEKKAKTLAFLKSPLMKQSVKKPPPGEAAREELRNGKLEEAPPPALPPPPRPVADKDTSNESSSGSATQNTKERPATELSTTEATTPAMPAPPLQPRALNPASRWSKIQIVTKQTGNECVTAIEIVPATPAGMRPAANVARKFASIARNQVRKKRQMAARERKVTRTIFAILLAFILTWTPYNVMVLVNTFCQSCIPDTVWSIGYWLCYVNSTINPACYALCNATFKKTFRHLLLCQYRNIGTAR
Description: Human and rat M4 cDNAs, along with the chimeric G protein Gqi5, were transfected into Chinese hamster ovary (CHO-K1) cells purchased from the American Type Culture Collection using Lipofectamine2000. The transfected cells were subjected to selection antbiotic treatment to generate stable cell lines; G418 sulfate (1 mg/ml) for selecting M4 expressing cells and Hygromycin B (500 μg/mL) for selecting Gqi5 expressing cells. The resulting polyclones were further screened to obtain monoclones of hM4-Gqi5 and rM4-Gqi5 for compound screening assay. Stable monoclone cells were maintained in Ham's F-12 medium containing 10% heat-inactivated fetal bovine serum (FBS), 1× Antibiotic/Antimycotic, 20 mM HEPES, 500 μg/mL G418 sulfate, and 200 μg/mL Hygromycin B in 37° C. humidified incubators in the presence of 5% CO2.
(§1) The high throughput assay was employed to measure receptor-induced mobilization of intracellular calcium to determine compound activity. Test compound was added to cells expressing the muscarinic receptors that were loaded with calcium sensitive fluorescent dye. After a ˜2.5 minute incubation period, a submaximal (EC20) concentration of acetylcholine was added, and the response measured. This kinetic assay allows for simultaneous screening and potency determination of multiple pharmacological modes of action including agonist and potentiator activity. CHO-K1 cells stably expressing muscarinic receptors were plated in growth medium lacking G418 and hygromycin at 15,000 cells/20 μL/well in Greiner 384-well black-walled, tissue culture (TC)-treated, clear-bottom plates (Greiner Bio-One). Cells were incubated overnight at 37° C. and 5% CO2. The next day, calcium assay buffer (Hank's balanced salt solution (HBSS), 20 mM HEPES, 2.5 mM Probenecid, 4.16 mM sodium bicarbonate (Sigma-Aldrich, St. Louis, MO)) was prepared to dilute compounds, agonists, and Fluo-4-acetomethoxyester (Fluo-4-AM), fluorescent calcium indicator dye. Compounds were serially diluted 1:3 into 10 point concentration response curves in DMSO using the Bravo Liquid Handler (Agilent, Santa Clara, CA), transferred to a 384 well daughter plates using an Echo acoustic liquid handler (Beckman Coulter, Indianapolis, Indiana), and diluted in assay Buffer to a 2× final concentration. The agonist plates were prepared using acetylcholine (ACh, Sigma-Aldrich, St. Louis, MO) concentrations for the EC20 and ECMAX responses by diluting in assay buffer to a 5× final concentration. The 2× dye solution (2.3 μM) was prepared by mixing a 2.3 mM Fluo-4-AM stock in DMSO with 10% (w/v) pluronic acid F-127 in a 1:1 ratio in assay buffer. Using a microplate washer (BioTek, Winooski, VT), cells were washed with assay buffer for 3 times to remove medium. After the final wash, 20 μL of assay buffer remained in the cell plates. Immediately, 20 μL of the 2× dye solution (final 1.15 μM) was added to each well of the cell plate using a Multidrop Combi dispenser (Thermo Fisher, Waltham, MA). After cells were incubated with the dye solutions for 45 min at 37° C. in the presence of 5% CO2, the dye solutions were removed and replaced with assay buffer using a microplate washer, leaving 20 μL of assay buffer in the cell plate.
The prepared compound, agonist, and cell plates were placed inside the Functional Drug Screening System uCell (FDSS uCell, Hamamatsu, Japan) to measure the calcium flux. The triple add protocol was used to measure Ca kinetics; Compound, ACh for EC20, and ACh for EC80 adds in an order. Briefly, after establishment of a fluorescence baseline for 2 seconds (excitation, 480 nm; emission, 530 nm), first add occurred by adding 20 μL of test compound to the cells, and the response was measured for 140 seconds. This is followed by second add; 10 μL (5×) of an EC20 concentration of ACh agonist was added to the cells, and the response of the cells was measured for 125 seconds. […]

Human M2 = target: T2, Human M2 (Homo sapiens, UniProt P08172); assay: M2 cell-based functional assay, calcium mobilization (selectivity); conditions: for Emax at 30 µM: % ACh maximum at 30 μM; for EC50 / Human M2 EC50: M2 cell-based functional assay, calcium flux
T2 construct: expressed in transfected cells; host or cells: CHO-K1
T2 sequence (P08172 1-466): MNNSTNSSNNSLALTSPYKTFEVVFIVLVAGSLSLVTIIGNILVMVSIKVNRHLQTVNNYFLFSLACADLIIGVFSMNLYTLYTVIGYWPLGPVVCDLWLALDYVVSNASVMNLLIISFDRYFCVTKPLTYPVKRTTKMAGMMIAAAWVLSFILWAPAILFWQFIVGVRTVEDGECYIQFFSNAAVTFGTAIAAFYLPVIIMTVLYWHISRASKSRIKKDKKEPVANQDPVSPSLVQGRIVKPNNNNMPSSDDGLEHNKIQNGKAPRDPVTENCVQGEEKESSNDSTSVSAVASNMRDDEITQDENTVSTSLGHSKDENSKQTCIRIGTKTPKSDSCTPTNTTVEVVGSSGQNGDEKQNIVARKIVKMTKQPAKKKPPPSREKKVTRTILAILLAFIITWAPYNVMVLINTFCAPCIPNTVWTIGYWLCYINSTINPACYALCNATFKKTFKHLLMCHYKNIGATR
Description: as §1
The prepared compound, agonist, and cell plates were placed inside the Functional Drug Screening System uCell (FDSS uCell, Hamamatsu, Japan) to measure the calcium flux. The triple add protocol was used to measure Ca kinetics; Compound, ACh for EC20, and ACh for EC80 adds in an order. Briefly, after establishment of a fluorescence baseline for 2 seconds (excitation, 480 nm; emission, 530 nm), first add occurred by adding 20 μL of test compound to the cells, and the response was measured for 140 seconds. This is followed by second add; 10 μL (5×) of an EC20 concentration of ACh agonist was added to the cells, and the response of the cells was measured for 125 seconds. Immediately, the third add occurred by adding […] (5×) of an EC80 concentration of ACh and the response of the cells was measured for 90 seconds. Acetylcholine-mediated maximum response (ECmax) was measured by adding 1 mM ACh as third add in the control wells. DMSO vehicle was added to the control wells in the first add for assessing ACh EC20, EC80, and ECmax responses. Calcium fluorescence was recorded as fold over basal fluorescence and raw data were normalized to the maximal response to ACh agonist. Agonist activity was analyzed as a concentration-dependent increase in calcium mobilization upon compound addition. Positive allosteric modulator activity was analyzed as a concentration-dependent increase in the EC20 acetylcholine response. Antagonist activity was analyzed as a concentration-dependent decrease in the EC80 acetylcholine response. […]

SMILES	Emax at 30 µM (Human M4) [%]	EC50 (Human M4) [nM]	Emax at 30 µM (Human M2) [%]	EC50 (Human M2) [nM]	Human M2 EC50 (Human M2)
[2H]C1([2H])Oc2ccc(OC3CCN(c4nc5nn(CC)c(=O)n5cc4C)CC3)cc2OC1([2H])[2H] [Compound A2, 7-(4-((2,3-dihydrobenzo[b][1,4]dioxin-6-yl-2,2,3,3-d4)oxy)piperidin-1-yl)-2-ethyl-6-methyl-[1,2,4]triazolo[4,3-a]pyrimidin-3(2H)-one]	82	2	70	884	
[2H]C1([2H])Oc2ccc(OC3CCN(c4nc5nn(CCOC)c(=O)n5cc4C)CC3)cc2OC1([2H])[2H] [Compound A3, 7-(4-((2,3-dihydrobenzo[b][1,4]dioxin-6-yl-2,2,3,3-d4)oxy)piperidin-1-yl)-2-(2-methoxyethyl)-6-methyl-[1,2,4]triazolo[4,3-a]pyrimidin-3(2H)-one]	79	8	55	5410	
[2H]C1([2H])Oc2ccc(OC3CCN(c4nc5nn([C@H]6CCOC6)c(=O)n5cc4C)CC3)cc2OC1([2H])[2H] [Compound A5, (S)-7-(4-((2,3-dihydrobenzo[b][1,4]dioxin-6-yl-2,2,3,3-d4)oxy)piperidin-1-yl)-6-methyl-2-(tetrahydrofuran-3-yl)-[1,2,4]triazolo[4,3-a]pyrimidin-3(2H)-one]	87	12	66	2870	
[2H]C1([2H])Oc2ccc(OC3CCN(c4nc5nn(C)c(=O)n5c(Cl)c4C)CC3)cc2OC1([2H])[2H] [Compound A11, 5-chloro-7-(4-((2,3-dihydrobenzo[b][1,4]dioxin-6-yl-2,2,3,3-d4)oxy)piperidin-1-yl)-2,6-dimethyl-[1,2,4]triazolo[4,3-a]pyrimidin-3(2H)-one]	90	12	57	6090	
[2H]C1([2H])Oc2ccc(OC3CCN(c4nc5nn(C)c(=O)n5c(C5CC5)c4C)CC3)cc2OC1([2H])[2H] [Compound A12, 5-cyclopropyl-7-(4-((2,3-dihydrobenzo[b][1,4]dioxin-6-yl-2,2,3,3-d4)oxy)piperidin-1-yl)-2,6-dimethyl-[1,2,4]triazolo[4,3-a]pyrimidin-3(2H)-one]	103	32			Inactive

More lines, in order of falling EC50 (Human M4), values ahead:

Emax at 30 µM (Human M4) [%]	EC50 (Human M4) [nM]	Emax at 30 µM (Human M2) [%]	EC50 (Human M2) [nM]	Human M2 EC50 (Human M2)	SMILES
89	53	47	> 10000		[2H]C1([2H])Oc2ccc(OC3CCN(c4nc5nn(C(C)COC)c(=O)n5cc4C)CC3)cc2OC1([2H])[2H] (centres unmarked) [Compound A7, 7-(4-((2,3-dihydrobenzo[b][1,4]dioxin-6-yl-2,2,3,3-d4)oxy)piperidin-1-yl)-2-(1-methoxypropan-2-yl)-6-methyl-[1,2,4]triazolo[4,3-a]pyrimidin-3(2H)-one]
95	48			Inactive	[2H]C1([2H])Oc2ccc(OC3CCN(c4nc5nn(CC6CN(C)CCO6)c(=O)n5cc4C)CC3)cc2OC1([2H])[2H] (centres unmarked) [Compound A8, 7-(4-((2,3-dihydrobenzo[b][1,4]dioxin-6-yl-2,2,3,3-d4)oxy)piperidin-1-yl)-6-methyl-2-((4-methylmorpholin-2-yl)methyl)-[1,2,4]triazolo[4,3-a]pyrimidin-3(2H)-one]
103	28			Inactive	[2H]C([2H])([2H])n1nc2nc(N3CCC(Oc4ccc5c(c4)OC([2H])([2H])C([2H])([2H])O5)CC3)c(C)c(C3CC3)n2c1=O [Compound A13, 5-cyclopropyl-7-(4-((2,3-dihydrobenzo[b][1,4]dioxin-6-yl-2,2,3,3-d4)oxy)piperidin-1-yl)-6-methyl-2-(methyl-d3)-[1,2,4]triazolo[4,3-a]pyrimidin-3(2H)-one]
88	9	68	1380		[2H]C1([2H])Oc2ccc(OC3CCN(c4nc5nn([C@@H]6CCOC6)c(=O)n5cc4C)CC3)cc2OC1([2H])[2H] [Compound A4, (R)-7-(4-((2,3-dihydrobenzo[b][1,4]dioxin-6-yl-2,2,3,3-d4)oxy)piperidin-1-yl)-6-methyl-2-(tetrahydrofuran-3-yl)-[1,2,4]triazolo[4,3-a]pyrimidin-3(2H)-one]
100	5	78	367		[2H]C1([2H])Oc2ccc(OC3CCN(c4nc5n[nH]c(=O)n5cc4C)CC3)cc2OC1([2H])[2H] [Compound A1, 7-(4-((2,3-dihydrobenzo[b][1,4]dioxin-6-yl-2,2,3,3-d4)oxy)piperidin-1-yl)-6-methyl-[1,2,4]triazolo[4,3-a]pyrimidin-3(2H)-one]
79	5	45	839		[2H]C1([2H])Oc2ccc(OC3CCN(c4nc5n[nH]c(=O)n5c(C)c4C)CC3)cc2OC1([2H])[2H] [Compound A9, 7-(4-((2,3-dihydrobenzo[b][1,4]dioxin-6-yl-2,2,3,3-d4)oxy)piperidin-1-yl)-5,6-dimethyl-[1,2,4]triazolo[4,3-a]pyrimidin-3(2H)-one]
